The target in this test is T1, FimH (Escherichia coli, UniProt P08191).
T1 construct: with FimC (C-terminal His tag); FimG Nte peptide in the assay
The test is described as follows: SDS-PAGE donor strand exchange assay with purified FimChis:FimH ([…]) and FimG Nte peptide ([…]), concentration-response. Format: biochemical.

SMILES strings stand for the structures.

T1 sequence (P08191 22-300): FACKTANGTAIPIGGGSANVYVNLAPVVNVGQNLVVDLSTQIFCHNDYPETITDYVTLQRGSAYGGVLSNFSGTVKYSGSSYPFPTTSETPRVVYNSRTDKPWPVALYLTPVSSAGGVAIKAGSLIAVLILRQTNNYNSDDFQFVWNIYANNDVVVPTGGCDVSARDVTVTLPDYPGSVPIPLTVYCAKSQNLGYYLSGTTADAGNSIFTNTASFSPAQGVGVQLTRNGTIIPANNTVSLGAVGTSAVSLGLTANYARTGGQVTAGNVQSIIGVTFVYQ
T1 sequence (P31697 37-241, further chain): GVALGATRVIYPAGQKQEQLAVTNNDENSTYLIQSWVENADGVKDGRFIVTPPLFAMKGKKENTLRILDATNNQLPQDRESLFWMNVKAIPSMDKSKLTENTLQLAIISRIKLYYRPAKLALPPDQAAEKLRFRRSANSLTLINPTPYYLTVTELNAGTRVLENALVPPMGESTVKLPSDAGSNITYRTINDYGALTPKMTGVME
T1 sequence (P08190 24-167, further chain): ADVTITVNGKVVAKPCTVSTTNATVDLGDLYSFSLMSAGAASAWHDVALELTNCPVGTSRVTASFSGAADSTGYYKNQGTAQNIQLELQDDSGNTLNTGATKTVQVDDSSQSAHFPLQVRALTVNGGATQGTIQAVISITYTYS

One may read the IC50 as the concentration that inhibits the measured activity by half. Regarding `O=C(CSc1nnc(-c2ccc(S(=O)(=O)N3CCCC3)cc2)o1)Nc1ccc(Cl)cc1` [AL1, N-(4-chloro-phenyl)-2-{5-[4-(pyrrolidine-1-sulfonyl)-phenyl]-[1,3,4]oxadiazol-2-ylsulfanyl}-acetamide], the IC50 worked out at 286 µM.

The values are drawn from paper PMC3956373, “Suppression of type 1 pilus assembly in uropathogenic Escherichia coli by chemical inhibition of subunit polymerization” (Journal of Antimicrobial Chemotherapy, 2013).
